Experiments:
in vivo = details: female, mouse, plasma, 5 mg/kg
Experimental: (§2) The duration of mecamylamine's action was tested with two control experiments. First, 5 mice were injected with mecamylamine 5 mg/kg IP or saline. These mice were then tested at 1-hour intervals with nicotine 1 mg/kg IP. […] Mecamylamine plasma concentration was measured in 5 female mice, 1 hour after I.P. injection using a combination of Gas Chromatography and Mass Spectroscopy described by Jacob et al. (Jacob, 2000).

seizures induced by NMDA = details: McDonough, 1995; cited from earlier work
mice [1] = experiment: Nicotine-induced prostration, duration of mecamylamine blockade
Experimental: as §2

NMDA = details: O'Dell, 1988; Papke, 2001; cited from earlier work
[2] = molecular target: T1, human α4β2 nAChRs expressed in Xenopus oocytes (Homo sapiens, UniProt P17787+P43681); experiment: Two-microelectrode voltage clamp of ACh-activated currents in Xenopus oocytes; format: cell-based
T1 construct: expressed in transfected cells; host or cells: Xenopus laevis oocytes injected with cRNA (1:1 α4 to β2)
T1 sequence (P43681 29-627 limits assumed): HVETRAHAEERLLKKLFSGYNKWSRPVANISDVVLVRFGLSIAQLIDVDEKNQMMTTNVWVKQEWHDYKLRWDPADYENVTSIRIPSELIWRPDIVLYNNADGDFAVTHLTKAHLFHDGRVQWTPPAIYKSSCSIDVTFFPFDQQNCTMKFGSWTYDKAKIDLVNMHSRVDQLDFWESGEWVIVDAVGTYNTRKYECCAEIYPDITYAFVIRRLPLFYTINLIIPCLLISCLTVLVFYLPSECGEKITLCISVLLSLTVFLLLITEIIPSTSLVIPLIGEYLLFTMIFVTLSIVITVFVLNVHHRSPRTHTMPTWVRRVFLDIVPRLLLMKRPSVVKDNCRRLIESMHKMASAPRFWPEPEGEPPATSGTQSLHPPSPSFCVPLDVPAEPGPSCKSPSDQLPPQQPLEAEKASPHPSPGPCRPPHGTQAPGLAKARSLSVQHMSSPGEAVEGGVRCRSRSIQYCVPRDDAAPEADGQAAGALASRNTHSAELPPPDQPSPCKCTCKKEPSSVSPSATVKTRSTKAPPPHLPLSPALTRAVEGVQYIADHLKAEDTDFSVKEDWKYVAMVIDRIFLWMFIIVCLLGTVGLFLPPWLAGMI
T1 sequence (P17787 26-502): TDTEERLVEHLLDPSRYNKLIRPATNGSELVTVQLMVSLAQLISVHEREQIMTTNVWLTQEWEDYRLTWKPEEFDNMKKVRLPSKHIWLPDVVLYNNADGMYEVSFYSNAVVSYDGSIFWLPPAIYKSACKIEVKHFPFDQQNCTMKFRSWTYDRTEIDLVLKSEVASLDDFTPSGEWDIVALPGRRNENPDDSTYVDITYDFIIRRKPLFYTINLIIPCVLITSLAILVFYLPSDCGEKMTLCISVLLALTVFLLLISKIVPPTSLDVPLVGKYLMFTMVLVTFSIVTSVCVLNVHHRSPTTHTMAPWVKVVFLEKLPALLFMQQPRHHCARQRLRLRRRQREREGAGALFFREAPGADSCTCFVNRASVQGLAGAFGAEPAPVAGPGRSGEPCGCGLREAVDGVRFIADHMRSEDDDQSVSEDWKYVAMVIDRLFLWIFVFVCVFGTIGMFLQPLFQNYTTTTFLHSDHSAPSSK
Experimental: The human α4 and β2 type nAChRs were in a pSP64 expression vector. Standard techniques were used to linearize the vectors and use them as templates to make cRNA using SP6 as the polymerase. The human nicotinic clones were a gift from Dr. Jon Lindstrom, Ph.D. (Department of Neuroscience, University of Pennsylvania, Philadelphia, Pa.).
Xenopus laevis oocytes were removed from the females and defolliculated with collagenase. After the oocytes rested for 24 hours in L-15 oocyte medium, about 10 ng of a 1:1 ratio of α4 to β2 cRNA were injected into individual oocytes. A manual injector was used for this process (Nanoject; Drummond Scientific, Broomall, Pa.). The oocytes were incubated for 2-5 days in ND-96 medium (NaCl 96 mM, KCl 2 mM, MgCl2 1 mM, CaCl2 H2O 1.8 mM, HEPES 5 mM, Na-pyruvate 2.5 mM, theophylline 0.5 mM, and 10mg/L of gentamicin, adjusted to pH 7.5).
Whole oocytes were used to record currents using a Gene-Clamp 500 two-microelectrode voltage-clamp amplifier with an active ground (Axon Instruments, Inc., Foster, Cailf.). The recording electrodes were pulled from glass capillary tubing (Drummond, Broomall, Pa.) to obtain a resistance between 1 and 5 MΩ and filled with 3M KCl. Ba^2 Ringer's solution was used as the extracellular solution in order to avoid current amplification by calcium activated chloride currents (115 mM NaCl, 2.5 mM KCl, 1.8 mM BaCl2, 10 mM HEPES, 1 μM atropine, pH 7.4). Atropine was included to avoid activation of intrinsic muscarinic receptors. Experiments were performed at room temperature. Isoflurane was prepared from a saturated solution by serial dilution. Concentrations were verified by gas chromatography.
Oocytes were tested at a membrane potential of −60 mV. Bolus application of the agonist +/− indicated antagonist(s) was applied at a rate of 4 ml/min for a 2 second application.
Antagonists were pre-applied for 2 minutes prior to activation. Concentration response curves were made from the percent change in peak current from ACh activation in the presence of antagonist(s), compared to ACh alone. As the ACh concentration at central neuronal nAChRs is unknown, 1 mM ACh (saturating) was used to detect inhibition by isoflurane and mecamylamine experiments with mecamylamine. ACh 2 μM was used to detect potentiation by nicotine. Currents were measured in 5-8 cells for each data point. Clampex 7 (Axon instruments, Foster City, Calif.) was used for data acquisition.
Microcal Origins 5.0 (Microcal, Northampton, Mass.) was used for statistical calculations and graphical presentation. The in vitro data were fit to a modified Hill equation, y=100/(1+(x/IC50)^n), where IC50 is the concentration of drug at which of 50% of the response is inhibited and n is the Hill coefficient.

mice [3] = tested on: mice
Excerpt: Nicotinic acetylcholine receptors are involved in the mechanism of isoflurane hyperalgesia, and nicotinic inhibition could be the initiating event.
(§1) How could nicotinic inhibition cause hyperalgesia? Nicotine is thought to exert its analgesic action by increasing the release of norepinephrine, serotonin and acetylcholine onto the relay neurons in the dorsal horn of the spinal cord (Rao, 1996; and Reuter, 2000). Isoflurane might reduce pain threshold by inhibiting nicotinic acetylcholine receptors tonically active in potentiating the release of norepinephrine, serotonin and/or acetylcholine. To test the role of the α-adrenergic system, mice were treated systemically with the adrenergic neurotoxin DSP-4 to deplete norepinephrine levels (Jonsson, 1981). The DSP-4 mice 14 days after treatment were tested for HPWL in the presence of isoflurane alone or isoflurane with nicotine pretreatment (see methods).
To test the role of muscarinic receptors for acetylcholine, mice were treated with the nonspecific muscarinic antagonist, atropine. A cholinergic neurotoxin could not be used for these studies, because removing all cholinergic neurons would have nicotinic in addition to muscarinic effects. Instead, postsynaptic muscarinic blockade was used. ACh causes analgesia, at least in part due to muscarinic stimulation (Chiari, 1999; Smith, 1989; and Lavand'homme, 1999). […] High concentrations of atropine can block nicotinic acetylcholine receptors as well (Zwart, 1997).

[4] = tested on: ^3H-norepinephrine release from female mouse lumbar spinal cord slice; experiment: 3H-norepinephrine release from superfused spinal cord slice; details: 1 mM nicotine in perfusion buffer, p<0.02
Excerpt: Spinal Cord Slice Preparation: The spinal cord was dissected from the mouse. Under CO2 narcosis the mouse was decapitated. The spinal column was removed and placed into cold dissection solution where the spinal cord was removed with a dissection microscope. The lumbar section of the cord was isolated and imbedded in a 3% low melting point agar (Fisher Scientific) block made in dissection solution. Transverse 400 micrometer slices were made using a Vibratone VT1000S slicing apparatus (Leica, Whetzlar, Germany). Slicing was performed in ice cold Krebs solution bubbled with 5%CO2/95%O2.
The cord slices were incubated in a solution of 1 ml of Krebs solution and 10 ul of 1-[7,8-^3H] noradrenaline in a closed environment surrounded by Krebs solution bubbled with CO2/O2 for 30 minutes. The slices were transferred into a superfusion and stimulation chamber (Warner Instruments Inc.,) where Krebs solution was allowed to perfuse over them for 30 minutes at a rate of 0.5 ml/min. The superfusion chamber thermostatically temperature controlled at 37° C. The solutions were pumped to the chamber at a constant rate of 0.5 ml/min using a Kwik-Pump 290 (Long). Following a 30 minute period for equilibration, collections were taken every 1-2.5 minutes. Ecolite scintillation fluid (15 ml) was then added to each collection vial. The samples were analyzed for radioactivity (CPM) using a Packard TRI CARB 2100 TR scintillation counter (Meriden, Conn.).
Dissection Krebs Solution (mM) NaCl 125, KCl 2.5, NaHCO3 26, NaH2PO4-H2O1.25, MgCl2 6,CaCl2 1.5, glucose 2.5. Perfusion Krebs Solution (mM) NaCl 125, KCl 2.5, NaHCO3 26, NaH2PO4—H2O 1.25, MgCl2 1,CaCl2 2, glucose 2.5.
After incubation with ^3H-norepinephrine, the cord slices were perfused with buffer for 30 minutes at 0.5 ml/minute. After equilibration, samples containing released ^3H-norepinephrine were collected at 2.5 minute intervals. After determination of baseline release, the slices were stimulated with 1 mM nicotine in the perfusion buffer.

non-smoking volunteers = details: cited from earlier work
[5] = nicotine 1 mg/kg, Thompson, 1982, cited from earlier work
[6] = tested on: women having pelvic surgery
Experimental: In a double blind, randomized trial of women having pelvic surgery with an isoflurane anesthetic, either nicotine (nasal spray, 3 mg) or saline placebo was administered just prior to emergence from anesthesia. Postoperative pain was assessed using the visual analog scale (VAS). In the VAS, patients are asked how much pain they have on a scale from 0-10 where 0 is no pain and 10 is the worst pain imaginable. All patients had access to essentially unlimited morphine in a PCA pump as is routine after this type of surgery.

[7] = tested on: norepinephrine levels in brain and spinal cord; experiment: HPLC of norepinephrine, 5-HT, dopamine and metabolites after DSP-4; format: in vivo, mice; details: DSP4-treated n = 2
Excerpt: as §1
The HPLC procedures were conducted according to the methods described by Underwood et al. (Underwood, 1999).

[8] = Qian, 1993; Badio, 1994; cited from earlier work
[9] = 3 mg intranasally, Fishbein, 2000
[10] = 3 mg intranasally, Guthrie, 1999

CNC1(C)C2CCC(C2)C1(C)C (stereo not drawn) [mecamylamine]
concentration at 1 h (in vivo; intraperitoneal): 200 ± 70 nM | concentration at 1 h (in vivo; ip): 203 nM | ED50 for inhibition of seizures induced by NMDA (seizures induced by NMDA): 12 ± 3.2 mg/kg | duration of blockade of prostration from nicotine 1 mg/kg IP (mice [1]; mecamylamine 5 mg/kg IP, tested at 1-hour intervals): up to 4 hours | concentration range with NMDA antagonist properties (NMDA): ~100 µM | mode of antagonism at heteromeric nAChRs [2]: non-competitive antagonists | IC50 ([2]; 1 mM ACh, −60 mV, room temperature, read-out: IC50 for inhibition of α4β2 nAChR): 0.29 ± 0.05 µM | interaction of mecamylamine and isoflurane applied together (isobolographic analysis) ([2]; inhibition of α4β2 nAChR activation): within the 95% confidence intervals for additivity

CN1CCC[C@H]1c1cccnc1 [nicotine, (s)-(−)-nicotine]
analgesia by ICV nicotine (mice [3]; mouse, in vivo): caused significant analgesia both in the presence and absence of isoflurane | effect of ICV nicotine on isoflurane hyperalgesia (mice [3]; mouse, in vivo): did not prevent hyperalgesia with isoflurane | protection against isoflurane hyperalgesia in presence of atropine (mice [3]; nicotine 1 mg/kg, atropine 5 mg/kg): remained protective against the hyperalgesia | effect on HPWL in DSP-4 treated mice (mice [3]; nicotine pretreatment, baseline or isoflurane): without effect | release of ^3H-norepinephrine [4]: caused an increase in the release of ^3H-norepinephrine | average increase in systolic blood pressure (non-smoking volunteers; [9]): 7 mM of mercury | diastolic blood pressure or heart rate (non-smoking volunteers; [9]): no change | arterial peak concentration (non-smoking volunteers; [10]): 100 µM | steady state venous concentration (non-smoking volunteers; [10]): 30 µM | time of peak effect (non-smoking volunteers; intranasal nicotine): peak effect in five minutes | time until effect is dissipated (non-smoking volunteers; intranasal nicotine): dissipated in about one hour | detectability by HPLC at 40 minutes [5]: undetectable by HPLC at 40 minutes | peak concentration ([5]; at 5 minutes): approximately 2 μM | time until mice lay prone (mice [1]; nicotine 1 mg/kg IP, mice not pretreated with mecamylamine): ≤ 5 min | ill effects ([6]; nicotine nasal spray 3 mg): no severe ill effects | postoperative pain, VAS scores ([6]; nicotine nasal spray 3 mg prior to emergence vs saline placebo): significantly lower VAS scores | heart rate ([6]; nicotine nasal spray 3 mg vs placebo): higher heart rates | morphine used in the first hour (PCA pump) ([6]; nicotine nasal spray 3 mg, placebo 12 mg): 4 mg | blood pressures ([6]; with or without nicotine): not different | current relative to ACh 2 μM alone in presence of isoflurane ([2]; ACh 2 μM nicotine 2 μM, given concentration of isoflurane): always larger | current relative to ACh alone ([2]; nicotine 2 μM added to ACh 2 μM): produces a larger current than ACh alone

CCN(CCCl)Cc1ccccc1Br [DSP4]
MHPG concentration (HPLC) ([7]; Brain Stem, control 253.3): 104.9 | HVA concentration (HPLC) ([7]; Brain Stem, control 300.1): 275.2 | DA concentration (HPLC) ([7]; Brain Stem, control 599.2): 621.0 | DOPAC concentration (HPLC) ([7]; Brain Stem, control 662.4): 494.6 | NE concentration (HPLC) ([7]; Brain Stem, control 1044.1): 811.2 | 5-HT concentration (HPLC) ([7]; Brain Stem, control 2336.9): 2140.3 | 5HIAA concentration (HPLC) ([7]; Brain Stem, control 2972.1): 2746.9 | HVA concentration (HPLC) ([7]; Medulla, control 118.5): 88.0 | DA concentration (HPLC) ([7]; Medulla, control 168.7): 138.2 | MHPG concentration (HPLC) ([7]; Medulla, control 194.5): 139.3 | DOPAC concentration (HPLC) ([7]; Medulla, control 248.3): 196.0 | 5-HT concentration (HPLC) ([7]; Medulla, control 1152.5): 1054.9 | 5HIAA concentration (HPLC) ([7]; Medulla, control 1184.1): 1302.6 | NE concentration (HPLC) ([7]; Medulla, control 1408.8): 812.0 | HVA concentration (HPLC) ([7]; Pons, control 100.7): 181.6 | DA concentration (HPLC) ([7]; Pons, control 128.1): 379.6 | MHPG concentration (HPLC) ([7]; Pons, control 235.9): 122.1 | DOPAC concentration (HPLC) ([7]; Pons, control 341.8): 345.3 | 5-HT concentration (HPLC) ([7]; Pons, control 996.8): 1597.6 | 5HIAA concentration (HPLC) ([7]; Pons, control 1334.6): 2024.7 | NE concentration (HPLC) ([7]; Pons, control 1345.9): 811.6 | HVA concentration (HPLC) ([7]; Spinal cord, control 38.2): 23.0 | MHPG concentration (HPLC) ([7]; Spinal cord, control 82.5): 62.6 | DOPAC concentration (HPLC) ([7]; Spinal cord, control 136.4): 118.8 | DA concentration (HPLC) ([7]; Spinal cord, control 182.6): 210.9 | NE concentration (HPLC) ([7]; Spinal cord, control 798.8): 587.6 | 5HIAA concentration (HPLC) ([7]; Spinal cord, control 1057.9): 1111.3 | 5-HT concentration (HPLC) ([7]; Spinal cord, control 1122.1): 808.6

Clc1ccc(C2CC3CCC2N3)cn1 (stereo not drawn) [Epibatidine]
potency for analgesia relative to morphine [8]: approximately 200 times

CN1[C@@H]2CC[C@H]1C[C@@H](OC(=O)C(CO)c1ccccc1)C2 (stereo partly drawn) [atropine]
effect on hyperalgesic response to isoflurane (mice [3]; atropine 5 mg/kg): had no effect on the hyperalgesic response to isoflurane | minimum concentration that caused baseline hyperalgesia (mice [3]; mouse, in vivo): 5 mg/kg

Reference: patent US20040048900A1, “Nicotine and/or nicotine agonists for the treatment of general anesthetic effects and side effects” (priority 2002, published 2004)
